The values below come from patent US6939534B2, “Method to treat pulmonary hypoplasia in the newborn” (GenoMed, LLC, priority 2001, dated 2005).

The conditions of series [1]: inhaled; cited from earlier work.
For series [2] the following is noted: animal models; cited from earlier work.
Series [3] has as its system type II pneumocytes. Particulars: applied to type II pneumocytes in culture; cited from earlier work.
A short description of series [4]: Stability under acidification (pH 1-2) and heating (100° C. for 5 min). Particulars: acidification to pH 1-2, heating to 100° C. for 5 min. It counts as physicochemical. As for the experimental part: Since the EGF receptor can be activated by either EGF or transforming growth factor-α (TGF-α), and TGF-α is important in fetal development, and is also elaborated by the distal nephron, the EGF and TGF-α content of human amniotic fluid was measured, using specific radioimmunoassays and immunoprecipitation and immunoblotting. […] EGF, but not TGF-α, is stable under these conditions. […] In neonates, mature EGF (6 kD) is the predominant form in urine.
No significant concentration (<0.6 ng/ml) of TGF-α or EGF in human amniotic fluid was detectable directly by RIA or RRA.

With `[N]=O` [inhaled nitric oxide, nitric oxide], the half-life result in series [1] is “very short”.
For epidermal growth factor [EGF], the toxicity result in series [2] was “no toxicity”. Besides, in series [3], the production of surfactant result is on record as “stimulates production of surfactant”. In series [4], the stability entry is given as “stable”.
